Ends that are not written are not given here.
Experiments:
[1] = test system: complement activation in normal human serum (NHS); test: C1-antiC1q immune complex-initiated complement activation in normal human serum (C5a, iC3b, SC5b-9 ELISA); format: biochemical
Experimental: Immune complex activation of NHS was performed as follows. NHS was stimulated with three different types of immune complexes (IC) to induce complement activation. Heat-aggregated IgG was generated by incubating intravenous immune globulin at 50 mg/ml at 63° C. for 30 min [26]. Ovalbumin-antiovalbumin immune complexes were made by incubating 0.01 ml anti-ovalbumin antibody with an equal volume of ovalbumin, at 0.25 mg/nil, at 37° C. for 30 minutes and then storing at 4° C. overnight. C1 immune complexes were formed by incubating 0.02 ml anti-C1q goat sera with 5 μl of C1, at 200 μg/ml, at 30° C. for 30 minutes and then placing in an ice water bath. For C5a and C5b-9 assays, activation of NHS was performed by pre-incubating 5% NHS with titrating concentrations of PA-dPEG24 in 0.3 ml of GVBS^++ buffer for 30 minutes at room temperature. Then […] of either heat-aggregated IVIg, or ovalbumin IC, or 5 μI of C1-antiC1q IC was added to the mix for 30 min. at 37° C. This reaction was stopped with the addition of an equal volume of GVBS^−−. For iC3b detection, 1% NHS was used and the rest of the protocol remained the same.
ELISA was performed as follows. Samples were assayed using C5a, iC3b, and SC5b-9 ELISAs. A C5a ELISA kit (R&D Systems) was used per the manufacturer's instructions. ELISAs for iC3b and SC5b-9 were performed as previously described. In iC3b ELISA, a goat anti-human C3 antibody (Complement Technology, Tyler TX) was used in for capture, a mouse anti-human iC3b antibody (Quidel, San Diego CA) for probing, and a goat anti-mouse HRP antibody for detection. In SC5b-9 ELISA, a rabbit anti-human SC5b-9 antibody (Complement Technology) was used for capture, a mouse anti-human SC5b-9 monoclonal antibody (Quidel) for probing, and a chicken anti-mouse HRP antibody for detection. Colorimetric detection was performed with TMB, stopped with H2SO4 and read on a BioTek Synergy HT plate reader at 450 nm.
Due to the importance of anti-C1q antibodies in a subset of patients with SLE, immune complexes with human C1 and anti-C1q antibodies (goat) were generated. […]

[2] = test system: classical complement pathway; conditions: administered intravascularly into rats; by 30 seconds; cited from earlier work
[3] = test system: human neutrophils; test: PMA-initiated NET formation by human neutrophils (fluorescence microscopy, PicoGreen free DNA); format: cell-based; conditions: 5 mM PA-dPEG24, PMA + hydrogen peroxide
Experimental: Neutrophils from the blood of healthy volunteers were purified from heparinized blood by Hypaque-Ficoll step gradient centrifugation, dextran sedimentation, and hypotonic lysis, as previously described.
A Neutrophil Extracellular Trap assay was performed in a microtiter plate as follows. The formation of NETs was induced by incubating 2.0×10^5 neutrophils in a 96 well tissue culture plates with RPMI media alone, or adding 0.05% of H2O2, or 12 nM PMA, or 8 μg/ml MPO, or PA-dPEG24 at various concentrations. For immune complex sera induced NET formation, activated sera was made by adding 5 μl of ovalbumin-anti-ovalbumin immune complex to 5% NHS in 0.3 ml of GVBS^++. This combination was allowed to incubate for 30 minutes at 37° C., and then 0.05 ml was added to the neutrophils in RPMI. Cells were then incubated for 1.5 hours at 37° C. in 5% CO2 incubator.
NET formation was quantitatively assayed as follows. Free DNA was measured by PicoGreen in the supernatant recovered from the NET microtiter plate well assay. Five hundred units of […] (Fisher) were added to each well to allow for digestion of released extracellular DNA for 10 minutes in 37° C. incubator. […] The fluorescence was then quantified on a BioTek microplate reader at Excitation 485 nm/Emission 528 nm.
NET formation was assayed by fluorescence microscopy. […]

For “IALILEPICCQERAA-dPEG24 (cysteine pairing not given here) [PA-dPEG24, 15-amino acid PEGylated peptide, 24 PEG moieties at the C-terminus]”, the “C1-antiC1q generation of iC3b” value ([1]; 2 mM PA-dPEG24, P<0.02) was “inhibited by 2 mM PA-dPEG24 (P<0.02) to a level similar to NHS baseline”, the “PA-dPEG24 concentration inhibiting C1-antiC1q generation of SC5b-9” value ([1]; P<0.03) was ≥ 0.13 mM and the “C1-antiC1q generation of C5a in NHS” value ([1]; at each concentration, P<0.03) was “dose-dependently inhibited”. For the same substance, the “systemic inhibition of complement activation” value [2] was > 90%, the “NETs identified by fluorescence microscopy” value [3] was “did not generate NETs” and the “inhibition of free DNA elaboration (PicoGreen)” value ([3]; vs no inhibitor, P=0.01) was 2.6 fold.
